Data taken from ChEMBL document CHEMBL3044959, “Feeding deterrents from Aconitum episcopale roots against the red flour beetle, Tribolium castaneum” (J Agric Food Chem, 2011).

Legend:
[1] = tested on: Tribolium castaneum; experiment: Feeding deterrent activity against Tribolium castaneum (red flour beetle) adults using wheat flour assessed as consumption of diet at 300 ppm measured after 3 days relative to untreated control; type: functional
[2] = tested on: Tribolium castaneum; experiment: Feeding deterrent activity against Tribolium castaneum (red flour beetle) adults using wheat flour assessed as consumption of diet at 1000 ppm measured after 3 days relative to untreated control; type: functional
[3] = tested on: Tribolium castaneum; experiment: Feeding deterrent activity against Tribolium castaneum (red flour beetle) adults using wheat flour assessed as consumption of diet at 10 ppm measured after 3 days relative to untreated control; type: functional
[4] = tested on: Tribolium castaneum; experiment: Feeding deterrent activity against Tribolium castaneum (red flour beetle) adults using wheat flour assessed as consumption of diet at 30 ppm measured after 3 days relative to untreated control; type: functional
[5] = tested on: Tribolium castaneum; experiment: Feeding deterrent activity against Tribolium castaneum (red flour beetle) adults using wheat flour assessed as consumption of diet at 100 ppm measured after 3 days relative to untreated control; type: functional
[6] = tested on: Tribolium castaneum; experiment: Feeding deterrent activity against Tribolium castaneum (red flour beetle) adults using wheat flour assessed as inhibition of insect feeding measured after 3 days; type: functional, organism-based
[7] = Toxicity in ip dosed Mus musculus (mouse); type: organism-based; details: in vivo
[8] = Toxicity in iv dosed Mus musculus (mouse); type: organism-based; details: in vivo
[9] = Toxicity in po dosed Mus musculus (mouse); type: organism-based; details: in vivo

Structure (SMILES)	Activity [1] [%]	Activity [2] [%]	Activity [3] [%]	Activity [4] [%]	Activity [5] [%]	EC50 [6] [ppm]	LD50 [7] [mg/kg]	LD50 [8] [mg/kg]	LD50 [9] [mg/kg]
CCN1C[C@]2(COC)CC[C@H](OC)[C@]34C1[C@H]([C@H](OC)[C@H]23)[C@@]1(O)C[C@H](OC)[C@H]2C[C@@H]4[C@@H]1[C@H]2O [CHASMANINE]	69.59	53.29	90.55	72.47	61.64				
CCN1C[C@]2(COC)CC[C@H](OC)[C@]34C1[C@H]([C@H](OC)[C@H]23)[C@@]1(OC(C)=O)C[C@H](OC)[C@@]2(O)C[C@@H]4[C@@H]1[C@H]2OC(=O)c1ccc(OC)cc1 [CRASSICAULINE A]	53.83	39.59	97.81	89.73	78.36	1134.5			
CCN1C[C@]2(C)CC[C@H](O)[C@@]34C5C[C@@H]6[C@@H](OC)C[C@@](O)(C5[C@H]6O)[C@@H](CC23)C14 (some centres not stated) [KARACOLINE]	54.66	43.84	92.96	77.95	65.07	395.2	298	51.5	
CCN1C[C@]2(C)CC[C@H](OC)[C@]34C1[C@H](C[C@H]23)[C@@]1(O)C[C@H](OC)[C@H]2C[C@@H]4[C@@H]1[C@H]2O [SACHACONITINE]	53.7	38.08	93.97	71.78	62.19	427.8			
CCN1C[C@]2(COC)CC[C@H](OC)[C@]34C1[C@H](C[C@H]23)[C@@]1(O)C[C@H](OC)[C@H]2C[C@@H]4[C@@H]1[C@H]2O [TALATISAMINE]	58.63	48.77	92.47	75.89	60.82	342.8			
CC(=O)O[C@@H]1C[C@H](O)[C@@]23CO[C@@H](O)[C@]1(C)[C@@H]2C[C@@H](O)[C@]1(C)[C@@H]3C(=O)[C@H](OC(C)=O)[C@@]2(C)[C@H](c3ccoc3)C[C@H]3O[C@]321 [TOOSENDANIN]						94.3			
CCN1C[C@]2(COC)[C@H](O)C[C@H](OC)[C@]34C1[C@H]([C@H](OC)[C@H]23)[C@@]1(OC(C)=O)C[C@H](OC)[C@@]2(O)C[C@@H]4[C@@H]1[C@H]2OC(=O)c1ccc(OC)cc1 [YUNACONITINE]			96.75	85.48	68.37	654.3			2.97
